Assay results from patent KR20180032031A, “이소디메틸웨델로락톤을 포함하는 화장료 조성물” (주식회사 엘지생활건강, priority 2016, dated 2018).

Columns and labels:
[1] = Anti-glycation effect (L-arginine and glucose); conditions: 70 ℃, 4 h, 420 nm
[2] = test system: RAW264.7 cells, nitric oxide (NO) [RAW264.7 세포, 일산화질소(NO)]; experiment: NO production inhibition in LPS-stimulated RAW264.7 cells (GRIESS method); format: cell-based; conditions: Mus musculus, LPS 1 ㎍, 24 h, read-out: NO production inhibition rate
[3] = Free radical scavenging (DPPH), antioxidant effect; conditions: 37 ℃, 30 min, 520 nm, n = 3
[4] = test system: human-derived fibroblasts, type I collagen [인간 유래 섬유아세포, 제1형 콜라겐]; experiment: Type I collagen synthesis promotion in human-derived fibroblasts (PICP EIA kit); format: cell-based; conditions: 48 h, n = 4
[5] = test system: B-16 mouse melanoma cells [쥐의 멜라노마 세포(B-16 mouse melanoma cell)]; experiment: Melanin total amount reduction in B-16 mouse melanoma cells (whitening effect); format: cell-based; conditions: 3 days, n = 3; for melanin production amount: absorbance at 400 nm per 1×10^6 cells
collagenase [콜라게네이즈] = experiment: Collagenase activity inhibition; format: biochemical, rat/mouse; conditions: pH 7.5, room temperature, n = 3; for enzyme activity: maximum slope of absorbance at 345 nm; for inhibition rate: collagenase
elastase [엘라스타제] = molecular target: T1, elastase [엘라스타제] (Homo sapiens, UniProt P08246); experiment: Elastase activity inhibition; format: biochemical; conditions: pH 7.5, room temperature, n = 3; for enzyme activity: slope of absorbance at 405 nm
T1 construct: 엘라스타제(elastase)는 사람의 백혈구 세포로부터 유래한 것을 사용하였고; from tissue; host or cells: human leukocytes
T1 sequence (P08246 30-267): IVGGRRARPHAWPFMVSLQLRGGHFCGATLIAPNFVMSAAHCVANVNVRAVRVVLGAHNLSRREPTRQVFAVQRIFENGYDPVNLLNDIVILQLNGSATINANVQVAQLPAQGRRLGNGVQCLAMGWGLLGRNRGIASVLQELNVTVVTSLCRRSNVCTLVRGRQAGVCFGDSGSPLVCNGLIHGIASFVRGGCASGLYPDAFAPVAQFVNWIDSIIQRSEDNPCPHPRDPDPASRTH

Structure (SMILES): N=C(N)NN [Aminoguanidine, reference compound]
- inhibition rate ([1]; 55 ppm): 54.89%

Structure (SMILES): CNC(=N)NCCC[C@H](N)C(=O)O [L-NMMA, L-NG-Monomethylarginine, reference compound]
- inhibition at 10 ppm [2]: 41%

Structure (SMILES): O=C1O[C@H]([C@@H](O)CO)C(O)=C1O [비타민 C, L-Ascorbic acid, reference compound]
- free radical scavenging rate (IC50) [3]: 7.5
- type I collagen production amount ([4]; 50 ppm): 246.8 ng/mL
- activation at 50 ppm ([4]; Homo sapiens, Fibroblast, collagen production vs negative control, 50 ppm, read-out: increase rate): 64.3%

Structure (SMILES): OC[C@H]1O[C@@H](Oc2ccc(O)cc2)[C@H](O)[C@@H](O)[C@@H]1O [알부틴, reference compound]
- melanin production amount ([5]; 100 ppm): 0.228 abs
- inhibition at 100 ppm ([5]; Mus musculus, 72 h, total melanin vs negative control, 100 ppm, read-out: inhibition rate): 30.9%

Structure (SMILES): O=c1oc2c(O)cc(O)cc2c2oc3cc(O)c(O)cc3c12 [화학식1의 화합물, 2,4,8,9-tetrahydroxy-[1]benzofuro[3,2-c]chromen-6-one]
- inhibition rate ([1]; 25 ppm): 44.32%
- inhibition rate ([1]; 50 ppm): 65.20%
- enzyme activity (collagenase [콜라게네이즈]; 100 ppm): -2.34
- enzyme activity (collagenase [콜라게네이즈]; 200 ppm): -2.61
- inhibition rate (collagenase [콜라게네이즈]; 100 ppm): 24.57%
- inhibition rate (collagenase [콜라게네이즈]; 200 ppm): 32.37%
- enzyme activity (elastase [엘라스타제]; 10 ppm): 3.7
- enzyme activity (elastase [엘라스타제]; 20 ppm): 3.2
- inhibition at 10 ppm (elastase [엘라스타제]; elastase, 10 ppm, read-out: inhibition rate): 64.4%
- inhibition at 20 ppm (elastase [엘라스타제]; elastase, 20 ppm, read-out: inhibition rate): 69.1%
- inhibition at 1 ppm ([2]; 1 ppm): 36.2%
- inhibition at 10 ppm [2]: 43.9%
- inhibition at 100 ppm ([2]; 100 ppm): 55.2%
- type I collagen production amount ([4]; 1 ppm): 180.3 ng/mL
- type I collagen production amount ([4]; 10 ppm): 260.1 ng/mL
- activation at 1 ppm ([4]; Homo sapiens, Fibroblast, collagen production vs negative control, 1 ppm, read-out: increase rate): 20%
- activation at 10 ppm ([4]; Homo sapiens, Fibroblast, collagen production vs negative control, 10 ppm, read-out: increase rate): 73.2%
- melanin production amount ([5]; 1 ppm): 0.251 abs
- melanin production amount ([5]; 10 ppm): 0.232 abs
- inhibition at 1 ppm ([5]; Mus musculus, 72 h, total melanin vs negative control, 1 ppm, read-out: inhibition rate): 23.9%
- inhibition at 10 ppm ([5]; Mus musculus, 72 h, total melanin vs negative control, 10 ppm, read-out: inhibition rate): 29.7%
